Key:
[1] = tested on: mouse colorectal cancer cell line CT26.WT; test: ICD induction evaluation (in vitro): Calreticulin (CRT) on cell surface by flow cytometry; type: cell-based; conditions: CT26.WT after 24 hours; compound (A) 4 μM, MTX 1 μM; adjusted MFI
Description: In cancer cells treated with different compounds, the expression level of Calreticulin (CRT), which serves as an index of Immunogenic cell death (ICD), was measured. Cells of mouse colorectal cancer cell line CT26.WT were seeded in a 6-well plate and cultured overnight. After the supernatant was removed, the cells were washed twice with PBS. In RPMI1640 culture solution containing 10% FBS (R10), compound (A), (4 μM) or Mitoxantrone (MTX) (1 μM) was added. As a control, DMSO was added in the same amount as that of compound (A) (R10-DMSO). After completion of drug treatment, CT26.WT cells were collected and suspended in PBS, and then, seeded in a 96-well (round bottom) plate at 1×10^6 cells/well. […] The expression level of CRT on the cancer cells was measured by flow cytometry (FACS CantoII: manufactured by Becton, Dickinson and Company). Data were analyzed by FlowJo (manufactured by TreeStar Inc). Note that, LIVE/DEAD Fixable Violet-positive cells were determined as dead cells and excluded from the analysis. The mean fluorescence intensity (MFI) of CRT was calculated. The value, which was obtained by subtracting the MFI of the cells treated with Isotype control from the MFI of stained cells, was determined as the adjusted MFI. […] The results satisfying P<0.05 (two-sided test) were determined as being significant (***: P<0.001, **: P<0.01).

[2] = tested on: spleen cells (CD4-positive / CD8-positive T cells, Tcm); test: FCM analysis of spleen cells (T cell populations); type: in vivo, mouse; conditions: for ratio occupied by Tcm in CD4-positive T cells compared to NCD treatment group: PBS administration (FIG. 29A); for ratio occupied by Tcm in CD8-positive T cells compared to NCD treatment group: PBS administration (FIG. 29B); for ratio occupied by CD4-positive T cells in the whole cells / ratio occupied by CD8-positive T cells in the whole cells: plus anti-SIRPα antibody (5C12) (FIG. 30C)
Description: From each of the mice used in Example 3, the spleen was excised out and spleen cells were prepared by use of PBS and seeded in a 96-well (round bottom) plate at 1×10^6 cells/well. After centrifugation was carried out at 1200 rpm for 3 minutes, the supernatant was removed. […] (manufactured by Biolegend, Inc.) diluted to 1/20 with PBS was added up to 100 μL/well. After standing at room temperature for 30 minutes, centrifugation was carried out at 1200 rpm for 3 minutes. The supernatant was removed, and primary-antibody solutions (FITC anti-CD36 antibody, PerCP anti-CD4 antibody, PE/Cy7 anti-CD8a antibody, APC anti-CD62L antibody, and APC/Cy7 anti-CD44 antibody: all manufactured by Biolegend, Inc.) were diluted with FACS buffer (1 mM EDTA, 5% FBS) and added in an amount of 50 μL/well. After standing in a dark place at 4° C. for 25 minutes, centrifugation was carried out at 1200 rpm for 3 minutes, and then the supernatant was removed. Washing was carried out twice with FACS buffer (200 μL/wells). After centrifugation, the supernatant was removed. A suspension was made with Stabilizing Fixative (manufactured by Becton, Dickinson and Company) and allowed to stand at room temperature for 10 minutes. Measurement was carried out by flow cytometry (FACS CantoII: manufactured by Becton, Dickinson and Company). Data were analyzed by use of FlowJo (manufactured by TreeStar Inc). Comparison between the NCD group and each of the drug treatment groups, or comparison among the PBS administration group, the anti-SIRPα antibody group and an anti-CD47 antibody group in each of the cell treatment groups was made in accordance with the Dunnett's multiple comparison. P value was expressed to four decimal places and the results satisfying P<0.05 (two-sided test) were determined as being significant.
Note that individual populations in the CD4-positive T cells and CD8-positive T cells were identified in the following conditions.
Tcm: central memory T cells [CD44(+) CD62L(+)]

[3] = Clin. Invest. 2020: 130(1): 374-388; cited from earlier work
[4] = plus anti-CD47 antibody (MIAP410) (FIG. 30A)
[5] = plus anti-CD47 antibody (MIAP410) (FIG. 30B)
[6] = plus anti-SIRPα antibody (5C12) (FIG. 30A)
[7] = plus anti-SIRPα antibody (5C12) (FIG. 30B)

| SMILES | CRT expression on cell surface relative to control group [1] | ratio occupied by Tcm in CD4-positive T cells compared to NCD treatment group [2] | ratio occupied by Tcm in CD8-positive T cells compared to NCD treatment group [2] | ratio occupied by Tcm in CD4-positive T cells compared to the _PBS group of the same drug [2, 4] | ratio occupied by Tcm in CD8-positive T cells compared to the _PBS group of the same drug [2, 5] | ratio occupied by Tcm in CD4-positive T cells compared to the _PBS group of the same drug [2, 6] | ratio occupied by Tcm in CD8-positive T cells compared to the _PBS group of the same drug [2, 7] | ratio occupied by CD4-positive T cells in the whole cells [2] | ratio occupied by CD8-positive T cells in the whole cells [2] | antitumor effect by vaccination of the treated cells [3] |
| --- | --- | --- | --- | --- | --- | --- | --- | --- | --- | --- |
| O=C1c2c(O)ccc(O)c2C(=O)c2c(NCCNCCO)ccc(NCCNCCO)c21 [MTX, Mitoxantrone, reference compound] | about 2.6 times | significantly increased | significantly increased | tendency to increase | tendency to increase | tendency to increase | significantly increased | tendency to increase | significantly increased |  |
| CC[C@@]1(O)C(=O)OCc2c1cc1n(c2=O)Cc2c-1nc1cc(F)c(C)c3c1c2[C@@H](NC(=O)CO)CC3 [compound (A)] | about 12.7 times | significantly increased | significantly increased | significantly decreased | significantly decreased | tendency to increase | substantially the same value | significantly increased | tendency to increase | limited antitumor effect |

Source: US20230414778A1, “COMBINATION OF ANTIBODY-DRUG CONJUGATE WITH ANTI-SIRPalpha ANTIBODY” (DAIICHI SANKYO COMPANY, LIMITED, priority 2020, published 2023)
